From ChEMBL document CHEMBL1201862, “PubChem BioAssay data set” (2004)
Each block holds one molecule with its values, some of them ahead of it. The source made the active and inactive calls.

Assays:
[1] = target: Nuclear receptor subfamily 5 group A member 2 (Homo sapiens, UniProt O00482); assay type: functional, cell-based;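 also: HEK293T cells transfected with LRH-1 and a StAR promoter luciferase reporter; potency for inhibitors that lower LRH-1 driven reporter light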
Steroidogenic factor 1 = Steroidogenic factor 1 (Homo sapiens, UniProt Q13285); test: Counterscreen for inverse agonists of the liver receptor homolog-1 (LRH-1; NR5A2): Luminescence-based cell-based high throughput dose response assay to identify inverse agonists of the Steroidogenic Factor 1 Nuclear Receptor (SF1; NR5A1).; assay type: functional
Sequence of Steroidogenic factor 1 (Q13285 whole entry): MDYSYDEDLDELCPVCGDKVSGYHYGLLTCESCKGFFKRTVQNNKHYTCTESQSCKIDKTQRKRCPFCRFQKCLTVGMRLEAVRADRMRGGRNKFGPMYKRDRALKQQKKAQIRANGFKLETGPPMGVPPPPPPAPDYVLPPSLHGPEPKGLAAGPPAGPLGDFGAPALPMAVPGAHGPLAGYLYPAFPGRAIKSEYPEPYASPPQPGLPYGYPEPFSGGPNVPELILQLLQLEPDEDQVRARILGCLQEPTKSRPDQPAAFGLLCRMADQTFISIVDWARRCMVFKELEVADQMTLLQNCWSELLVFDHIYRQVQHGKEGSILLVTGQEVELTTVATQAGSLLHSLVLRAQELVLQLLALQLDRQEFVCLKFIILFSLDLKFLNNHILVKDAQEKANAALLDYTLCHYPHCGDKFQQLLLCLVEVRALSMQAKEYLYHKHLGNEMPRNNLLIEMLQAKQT

[2] = nonselective StAR promoter luciferase inhibitors – cell-based, luminescence, luciferase reporter, counter-screen for LRH-1 inverse agonist project, dose response (AID 651969); assay type: functional
[3] = mouse fibroblast viability loss – cell-based, cherry-pick samples, set 2, cytotoxicity control for T. cruzi growth inhibitor project, dose response (AID 651817); assay type: functional; details: NIH3T3
[4] = intracellular Trypanosoma cruzi inhibitors in host cells – cell-based, plate reader, cherry-pick samples, set 3, dose response (AID 651818); assay type: functional;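 also: compounds incubated with infected cells for about four days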
Mu-type opioid receptor = Mu-type opioid receptor (Homo sapiens, UniProt P35372); assay type: functional, cell-based;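 also: U2OS cells with beta-arrestin recruitment to OPRM1 by beta-gal complementation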
Sequence of Mu-type opioid receptor (P35372 whole entry): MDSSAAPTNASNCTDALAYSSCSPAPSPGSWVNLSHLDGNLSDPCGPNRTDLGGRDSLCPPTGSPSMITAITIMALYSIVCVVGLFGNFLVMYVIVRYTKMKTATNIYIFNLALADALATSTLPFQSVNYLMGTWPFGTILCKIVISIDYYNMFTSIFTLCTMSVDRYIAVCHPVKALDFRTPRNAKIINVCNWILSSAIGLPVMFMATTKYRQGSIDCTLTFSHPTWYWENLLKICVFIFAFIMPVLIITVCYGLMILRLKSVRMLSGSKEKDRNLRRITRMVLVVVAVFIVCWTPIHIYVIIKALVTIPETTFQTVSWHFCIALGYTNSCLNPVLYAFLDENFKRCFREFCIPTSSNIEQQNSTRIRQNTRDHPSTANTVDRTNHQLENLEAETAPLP

[5] = target: 5-hydroxytryptamine receptor 2A (Mus musculus, UniProt P35363); assay type: functional, cell-based;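 also: CHO-K1 cells with tagged receptor and beta-arrestin; agonist potency measured as compound-induced activation of the receptor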
Sequence of 5-hydroxytryptamine receptor 2A (P35363 whole entry): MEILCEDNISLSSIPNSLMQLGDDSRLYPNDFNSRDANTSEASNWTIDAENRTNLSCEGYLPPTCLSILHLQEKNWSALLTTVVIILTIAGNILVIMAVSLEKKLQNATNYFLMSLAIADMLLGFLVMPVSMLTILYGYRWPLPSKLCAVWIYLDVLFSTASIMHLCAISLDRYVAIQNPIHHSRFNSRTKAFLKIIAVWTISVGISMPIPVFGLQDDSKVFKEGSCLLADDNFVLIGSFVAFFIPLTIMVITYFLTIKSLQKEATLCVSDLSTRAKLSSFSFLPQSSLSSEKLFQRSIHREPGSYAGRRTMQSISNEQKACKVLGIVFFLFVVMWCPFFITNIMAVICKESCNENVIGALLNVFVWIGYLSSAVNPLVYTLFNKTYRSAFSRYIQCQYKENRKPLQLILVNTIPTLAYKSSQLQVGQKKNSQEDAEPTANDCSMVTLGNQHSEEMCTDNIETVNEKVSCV

[6] = target: ADP-ribosylation factor GTPase-activating protein 1 (Rattus norvegicus, UniProt Q62848); test: Fluorescence polarization-based biochemical high throughput dose response screening assay to identify inhibitors of ADP-ribosylation factor GTPase activating protein 1 (ARFGAP1).; assay type: functional
Sequence of ADP-ribosylation factor GTPase-activating protein 1 (Q62848 whole entry, the tested form may be a part): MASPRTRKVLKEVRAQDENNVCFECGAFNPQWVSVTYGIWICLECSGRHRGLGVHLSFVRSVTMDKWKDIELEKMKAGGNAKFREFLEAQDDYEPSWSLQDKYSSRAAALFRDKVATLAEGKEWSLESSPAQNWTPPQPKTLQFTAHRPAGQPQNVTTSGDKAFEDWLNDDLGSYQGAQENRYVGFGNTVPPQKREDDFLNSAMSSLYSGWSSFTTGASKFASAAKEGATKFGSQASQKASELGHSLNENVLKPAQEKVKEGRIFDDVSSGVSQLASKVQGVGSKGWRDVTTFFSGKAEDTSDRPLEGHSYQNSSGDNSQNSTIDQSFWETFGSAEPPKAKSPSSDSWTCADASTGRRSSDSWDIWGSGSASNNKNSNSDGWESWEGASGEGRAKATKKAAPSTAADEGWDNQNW

[7] = target: Arf-GAP with SH3 domain, ANK repeat and PH domain-containing protein 1 (Homo sapiens, UniProt Q9ULH1); assay type: functional;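 also: biochemical fluorescence polarization dose–response screen measuring inhibition of ASAP1; ASAP1 GAP domain stimulating GTP hydrolysis by truncated human ARF1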
Sequence of Arf-GAP with SH3 domain, ANK repeat and PH domain-containing protein 1 (Q9ULH1 whole entry, the tested form may be a part): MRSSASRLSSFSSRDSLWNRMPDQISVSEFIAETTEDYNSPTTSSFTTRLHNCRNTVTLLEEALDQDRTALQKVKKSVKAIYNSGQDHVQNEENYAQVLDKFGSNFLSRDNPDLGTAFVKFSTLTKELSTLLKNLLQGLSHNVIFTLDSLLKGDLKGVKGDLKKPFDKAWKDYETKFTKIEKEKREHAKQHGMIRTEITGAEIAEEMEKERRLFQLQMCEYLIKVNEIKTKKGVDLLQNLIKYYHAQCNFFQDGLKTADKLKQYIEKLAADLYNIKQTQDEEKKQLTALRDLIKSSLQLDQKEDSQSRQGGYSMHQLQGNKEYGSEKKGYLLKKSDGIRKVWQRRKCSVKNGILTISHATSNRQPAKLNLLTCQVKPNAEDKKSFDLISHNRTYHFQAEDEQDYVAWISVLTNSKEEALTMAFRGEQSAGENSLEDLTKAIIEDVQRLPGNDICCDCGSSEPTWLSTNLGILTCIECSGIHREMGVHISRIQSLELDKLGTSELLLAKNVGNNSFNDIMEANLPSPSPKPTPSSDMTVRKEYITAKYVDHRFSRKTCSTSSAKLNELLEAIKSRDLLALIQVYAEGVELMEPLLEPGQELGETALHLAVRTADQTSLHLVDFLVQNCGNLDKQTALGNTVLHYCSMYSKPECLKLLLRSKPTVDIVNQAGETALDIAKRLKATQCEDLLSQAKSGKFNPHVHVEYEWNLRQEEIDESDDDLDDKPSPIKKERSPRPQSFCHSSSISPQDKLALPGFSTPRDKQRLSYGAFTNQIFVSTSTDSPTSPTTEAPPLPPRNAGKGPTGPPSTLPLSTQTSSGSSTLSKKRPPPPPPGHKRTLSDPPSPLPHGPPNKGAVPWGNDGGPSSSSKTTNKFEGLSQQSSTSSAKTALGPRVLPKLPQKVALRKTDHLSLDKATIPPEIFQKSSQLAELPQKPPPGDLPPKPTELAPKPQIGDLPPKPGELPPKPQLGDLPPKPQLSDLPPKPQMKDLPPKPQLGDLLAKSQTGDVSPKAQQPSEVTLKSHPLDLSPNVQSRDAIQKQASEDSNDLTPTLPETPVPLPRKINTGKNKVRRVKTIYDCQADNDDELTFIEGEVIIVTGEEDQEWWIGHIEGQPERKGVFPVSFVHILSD

[8] = HPDE-C7 pancreatic duct cell viability loss – fluorescence, HTS (AID 430); assay type: functional, cell-based; details: Homo sapiens
[9] = viability loss of HPDE-C7K cells – cell-based, fluorescence, HTS, primary screen (AID 431); assay type: functional; details: Homo sapiens
[10] = viability of PTEN-deleted HCT116 cells – cell-based, HCT116 PTEN knockout, dose response (AID 1047); assay type: functional;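 also: HCT116 colon tumor cells with PTEN knocked out; cells exposed to compound for 60 hours before readout; potency for loss of cell viability measured by luminescence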
[11] = viability of HCT116 lacking mutant beta-catenin – cell-based, human colon tumor, dose response (AID 1045); assay type: functional;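 also: HCT116 colon tumor cells with beta catenin knocked out; cells exposed to compound for 60 hours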
[12] = target: T1, Low molecular weight phosphotyrosine protein phosphatase (Homo sapiens, UniProt P24666); assay type: functional; details: read-out: IC50_Mean;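 also: Dose-response confirmation assay measuring inhibition of LMPTP enzyme activity by fluorescence intensity read-out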
T1 sequence (P24666 whole entry): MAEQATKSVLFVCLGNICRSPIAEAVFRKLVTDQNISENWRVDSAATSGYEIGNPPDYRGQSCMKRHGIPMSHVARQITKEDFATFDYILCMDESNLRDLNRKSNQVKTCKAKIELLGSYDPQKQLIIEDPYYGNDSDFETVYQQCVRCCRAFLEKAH

[13] = target: T2, Tyrosine-protein phosphatase non-receptor type 22 (Homo sapiens, UniProt Q9Y2R2); test: PTPN22 enzyme inhibitors – biochemical, fluorescence, LYP catalytic domain, selectivity assay for LMPTP inhibitor project, dose response (AID 652006); assay type: functional; details: read-out: IC50_Mean
T2 sequence (Q9Y2R2 whole entry): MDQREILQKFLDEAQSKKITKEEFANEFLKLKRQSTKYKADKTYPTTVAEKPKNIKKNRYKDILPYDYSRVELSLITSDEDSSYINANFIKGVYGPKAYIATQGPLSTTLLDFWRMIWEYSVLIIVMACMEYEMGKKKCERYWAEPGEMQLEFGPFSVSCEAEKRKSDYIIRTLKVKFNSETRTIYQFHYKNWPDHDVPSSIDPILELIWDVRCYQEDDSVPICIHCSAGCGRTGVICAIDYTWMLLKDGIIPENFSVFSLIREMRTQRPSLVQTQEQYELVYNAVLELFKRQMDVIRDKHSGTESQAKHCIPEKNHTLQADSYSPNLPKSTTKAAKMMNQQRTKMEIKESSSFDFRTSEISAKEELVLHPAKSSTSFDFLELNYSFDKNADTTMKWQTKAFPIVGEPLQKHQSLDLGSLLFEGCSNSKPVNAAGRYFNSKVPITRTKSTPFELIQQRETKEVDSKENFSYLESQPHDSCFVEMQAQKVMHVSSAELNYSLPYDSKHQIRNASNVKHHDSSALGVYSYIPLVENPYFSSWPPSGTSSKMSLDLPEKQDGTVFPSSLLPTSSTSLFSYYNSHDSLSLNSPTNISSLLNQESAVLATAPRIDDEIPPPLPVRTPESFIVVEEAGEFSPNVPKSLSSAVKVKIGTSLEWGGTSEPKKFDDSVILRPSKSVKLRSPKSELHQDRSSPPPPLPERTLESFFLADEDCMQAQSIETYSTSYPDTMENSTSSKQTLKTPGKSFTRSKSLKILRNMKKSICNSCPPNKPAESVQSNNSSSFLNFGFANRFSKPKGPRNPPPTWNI

Sequence of Nuclear receptor subfamily 5 group A member 2 (O00482 whole entry): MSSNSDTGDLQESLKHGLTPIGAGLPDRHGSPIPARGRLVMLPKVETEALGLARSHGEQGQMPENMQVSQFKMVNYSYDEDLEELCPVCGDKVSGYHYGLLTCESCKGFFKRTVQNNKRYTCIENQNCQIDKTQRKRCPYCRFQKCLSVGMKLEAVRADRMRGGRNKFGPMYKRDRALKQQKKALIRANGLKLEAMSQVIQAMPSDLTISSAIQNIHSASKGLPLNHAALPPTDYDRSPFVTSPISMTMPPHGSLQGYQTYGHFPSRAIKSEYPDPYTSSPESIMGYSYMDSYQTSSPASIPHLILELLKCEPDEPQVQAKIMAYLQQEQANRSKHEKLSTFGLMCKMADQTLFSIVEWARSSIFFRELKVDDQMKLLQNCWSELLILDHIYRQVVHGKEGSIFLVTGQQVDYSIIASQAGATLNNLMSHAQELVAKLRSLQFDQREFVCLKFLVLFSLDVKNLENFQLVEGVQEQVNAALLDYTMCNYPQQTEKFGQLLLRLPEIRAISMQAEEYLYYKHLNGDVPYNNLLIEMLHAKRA

SMILES: CCOc1ccc(NC(=O)COC(=O)c2ccc3c(c2)OCCO3)cc1
IC50 [1]: 12.9 µM (inactive)
IC50 (Steroidogenic factor 1): 1.01 µM (active)
IC50 [2]: 35.9 µM (inactive)

SMILES: COc1ccc(CN(C)C[C@@H]2Oc3c(NC(=O)Nc4ccc(C(F)(F)F)cc4)cccc3C(=O)N([C@H](C)CO)C[C@H]2C)cc1
AC50 [3]: 11.3 µM (active)
AC50 [4]: 1.8 µM (active)

EC50 (Mu-type opioid receptor): 92.5 µM (inactive)
EC50 [5]: 20.2 µM (inactive)
SMILES: Cc1ccccc1C(=O)O/N=C(\c1ccccc1)c1ccccn1

IC50 [6]: 119 µM (inactive)
IC50 [7]: 116 µM (inactive)
SMILES: COC(=O)Cn1cc(/C=N/NC(=O)COc2cccc3cccnc23)c2ccccc21

SMILES: CC(=O)Nc1ccc(S(=O)(=O)N2CCN(c3nc(NC4CCCC4)c4ccccc4n3)CC2)cc1
EC50 [8]: 12.4 µM (active)
EC50 [9]: 13.2 µM (active)
EC50 [10]: 13.7 µM (active)
EC50 [11]: 12.7 µM (active)
IC50 [12]: 20.7 µM (inactive)
IC50 [13]: 28.2 µM (inactive)
